Experimental findings from ChEMBL document CHEMBL5291721, “A preclinical secondary pharmacology resource illuminates target-adverse drug reaction associations of marketed drugs” (Nat Commun, 2023) are described below.

By AC50 is commonly meant the concentration at which the activity in the assay is half-maximal. Read a high AC50 as weaker potency.

The target of experiment [1] is Neuronal acetylcholine receptor subunit alpha-4 (Homo sapiens, UniProt P43681).
For a further experiment, the target named is T1, Thromboxane A2 receptor (Homo sapiens, UniProt P21731).
T1 sequence (P21731 whole entry): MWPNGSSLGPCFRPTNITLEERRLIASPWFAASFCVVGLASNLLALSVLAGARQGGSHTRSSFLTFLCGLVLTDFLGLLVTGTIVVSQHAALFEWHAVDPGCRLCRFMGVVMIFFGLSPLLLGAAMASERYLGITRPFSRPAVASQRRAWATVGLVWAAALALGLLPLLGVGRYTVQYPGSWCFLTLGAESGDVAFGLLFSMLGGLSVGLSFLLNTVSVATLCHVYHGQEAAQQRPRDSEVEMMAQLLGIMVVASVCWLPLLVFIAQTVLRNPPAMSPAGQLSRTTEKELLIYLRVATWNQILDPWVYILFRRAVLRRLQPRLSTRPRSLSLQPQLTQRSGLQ

In experiment [2] the target is T2, 5-hydroxytryptamine receptor 1A (Homo sapiens, UniProt P08908).
T2 sequence (P08908 whole entry): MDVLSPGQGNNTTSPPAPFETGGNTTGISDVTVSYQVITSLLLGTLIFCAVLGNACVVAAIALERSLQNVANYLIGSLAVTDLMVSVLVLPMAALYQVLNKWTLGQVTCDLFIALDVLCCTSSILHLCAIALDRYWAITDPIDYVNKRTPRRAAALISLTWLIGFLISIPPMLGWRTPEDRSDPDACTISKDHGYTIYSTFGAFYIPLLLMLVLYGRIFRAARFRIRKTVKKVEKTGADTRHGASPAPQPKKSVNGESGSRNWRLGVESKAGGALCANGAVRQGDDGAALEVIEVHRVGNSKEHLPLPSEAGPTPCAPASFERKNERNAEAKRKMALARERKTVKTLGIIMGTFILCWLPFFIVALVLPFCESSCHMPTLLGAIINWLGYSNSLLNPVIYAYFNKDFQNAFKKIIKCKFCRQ
The experiment is classed as functional, cell-based.

Another experiment concerns the target Vasopressin V1a receptor (Homo sapiens, UniProt P37288).
The target in experiment [3] is T3, 5-hydroxytryptamine receptor 3A (Homo sapiens, UniProt P46098).
T3 sequence (P46098 whole entry): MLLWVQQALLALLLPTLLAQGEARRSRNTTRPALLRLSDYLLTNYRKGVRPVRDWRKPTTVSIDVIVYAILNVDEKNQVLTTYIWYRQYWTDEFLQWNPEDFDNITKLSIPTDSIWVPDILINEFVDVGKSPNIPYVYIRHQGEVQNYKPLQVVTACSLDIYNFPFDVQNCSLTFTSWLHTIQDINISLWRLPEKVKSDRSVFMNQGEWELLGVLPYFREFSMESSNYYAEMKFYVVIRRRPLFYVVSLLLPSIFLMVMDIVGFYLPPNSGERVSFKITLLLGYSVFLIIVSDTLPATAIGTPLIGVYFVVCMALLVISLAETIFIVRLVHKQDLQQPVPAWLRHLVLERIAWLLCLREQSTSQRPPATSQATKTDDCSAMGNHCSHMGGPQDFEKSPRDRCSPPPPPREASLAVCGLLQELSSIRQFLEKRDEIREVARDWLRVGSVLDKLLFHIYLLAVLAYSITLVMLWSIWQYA
Format: functional.

For experiment [4], the target named is Muscarinic acetylcholine receptor M3 (Homo sapiens, UniProt P20309).
Experiment [5] concerns the target T4, Amine oxidase [flavin-containing] A (Homo sapiens, UniProt P21397).
T4 sequence (P21397 whole entry): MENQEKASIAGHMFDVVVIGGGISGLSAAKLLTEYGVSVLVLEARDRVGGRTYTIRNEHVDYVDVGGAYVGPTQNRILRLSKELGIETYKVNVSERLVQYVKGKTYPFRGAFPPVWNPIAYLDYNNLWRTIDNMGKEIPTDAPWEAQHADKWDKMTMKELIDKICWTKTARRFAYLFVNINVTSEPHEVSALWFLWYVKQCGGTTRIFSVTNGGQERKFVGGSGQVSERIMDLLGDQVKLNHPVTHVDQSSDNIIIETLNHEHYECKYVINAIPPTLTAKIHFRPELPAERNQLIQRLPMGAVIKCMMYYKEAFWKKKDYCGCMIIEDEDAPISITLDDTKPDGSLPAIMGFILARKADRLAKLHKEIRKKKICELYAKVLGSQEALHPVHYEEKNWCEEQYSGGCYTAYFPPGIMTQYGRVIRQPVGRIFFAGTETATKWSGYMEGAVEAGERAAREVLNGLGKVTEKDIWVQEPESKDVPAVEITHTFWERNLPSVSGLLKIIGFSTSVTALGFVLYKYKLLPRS
Format: functional.

Experiment [6] concerns the target T5, Gastrin/cholecystokinin type B receptor (Homo sapiens, UniProt P32239).
T5 sequence (P32239 whole entry): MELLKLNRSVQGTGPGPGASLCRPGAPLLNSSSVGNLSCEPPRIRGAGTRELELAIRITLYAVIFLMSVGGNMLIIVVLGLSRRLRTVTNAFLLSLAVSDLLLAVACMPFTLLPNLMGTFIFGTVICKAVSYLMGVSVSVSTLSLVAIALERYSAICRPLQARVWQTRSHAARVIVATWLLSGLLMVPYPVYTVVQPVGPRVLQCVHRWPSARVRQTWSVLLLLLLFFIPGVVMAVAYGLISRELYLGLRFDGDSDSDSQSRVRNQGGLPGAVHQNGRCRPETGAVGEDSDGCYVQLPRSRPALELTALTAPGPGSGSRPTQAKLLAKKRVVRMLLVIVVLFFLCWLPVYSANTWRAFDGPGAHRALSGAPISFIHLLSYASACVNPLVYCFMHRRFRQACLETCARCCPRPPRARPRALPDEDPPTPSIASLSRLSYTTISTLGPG
Further: assay procedure not described here.

Vasopressin V1a receptor, sequence (P37288 whole entry): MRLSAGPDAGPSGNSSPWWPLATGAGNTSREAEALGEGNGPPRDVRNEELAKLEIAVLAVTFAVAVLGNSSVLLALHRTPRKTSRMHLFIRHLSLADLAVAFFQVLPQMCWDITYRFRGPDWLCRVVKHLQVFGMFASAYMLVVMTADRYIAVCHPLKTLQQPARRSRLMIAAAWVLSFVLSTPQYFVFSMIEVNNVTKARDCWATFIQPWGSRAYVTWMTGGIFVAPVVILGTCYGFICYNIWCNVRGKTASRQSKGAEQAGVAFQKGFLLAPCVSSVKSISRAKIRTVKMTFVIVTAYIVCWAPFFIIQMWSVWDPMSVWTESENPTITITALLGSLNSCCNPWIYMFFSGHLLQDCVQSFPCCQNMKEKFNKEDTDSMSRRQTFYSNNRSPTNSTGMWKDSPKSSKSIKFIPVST
Neuronal acetylcholine receptor subunit alpha-4, sequence (P43681 whole entry): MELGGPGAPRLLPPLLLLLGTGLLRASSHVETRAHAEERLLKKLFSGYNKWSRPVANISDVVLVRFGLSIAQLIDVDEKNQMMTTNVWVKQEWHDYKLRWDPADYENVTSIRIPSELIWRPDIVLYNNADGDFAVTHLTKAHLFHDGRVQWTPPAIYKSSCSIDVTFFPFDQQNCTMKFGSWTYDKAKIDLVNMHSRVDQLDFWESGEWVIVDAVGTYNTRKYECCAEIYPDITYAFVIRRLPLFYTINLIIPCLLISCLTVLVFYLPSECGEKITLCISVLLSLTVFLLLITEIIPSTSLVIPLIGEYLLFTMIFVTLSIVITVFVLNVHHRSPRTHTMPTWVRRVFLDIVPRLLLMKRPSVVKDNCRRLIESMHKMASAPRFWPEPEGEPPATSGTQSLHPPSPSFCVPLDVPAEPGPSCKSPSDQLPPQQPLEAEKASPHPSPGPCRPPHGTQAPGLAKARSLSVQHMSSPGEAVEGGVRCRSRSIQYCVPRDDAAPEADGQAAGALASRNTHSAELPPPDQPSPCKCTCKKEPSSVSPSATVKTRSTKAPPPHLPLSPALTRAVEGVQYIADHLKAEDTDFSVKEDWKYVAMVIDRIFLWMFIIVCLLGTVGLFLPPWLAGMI
Muscarinic acetylcholine receptor M3, sequence (P20309 whole entry): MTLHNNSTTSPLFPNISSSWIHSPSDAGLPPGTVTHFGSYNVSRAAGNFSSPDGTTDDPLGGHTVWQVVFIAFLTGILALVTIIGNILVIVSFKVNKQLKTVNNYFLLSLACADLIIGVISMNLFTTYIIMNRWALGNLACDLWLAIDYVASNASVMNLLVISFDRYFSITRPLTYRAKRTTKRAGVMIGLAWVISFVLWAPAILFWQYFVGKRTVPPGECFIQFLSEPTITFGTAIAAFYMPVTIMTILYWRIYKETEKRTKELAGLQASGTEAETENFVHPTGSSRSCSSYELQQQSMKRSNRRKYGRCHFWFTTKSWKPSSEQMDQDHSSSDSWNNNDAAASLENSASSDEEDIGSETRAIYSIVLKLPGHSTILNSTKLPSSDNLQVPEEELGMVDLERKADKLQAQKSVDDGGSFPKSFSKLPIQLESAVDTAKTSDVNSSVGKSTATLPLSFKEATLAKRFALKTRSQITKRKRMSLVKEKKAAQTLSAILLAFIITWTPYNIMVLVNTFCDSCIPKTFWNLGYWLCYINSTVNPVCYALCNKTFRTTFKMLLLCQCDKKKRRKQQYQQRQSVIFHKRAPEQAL

`CN1C(=O)CC(=O)N(c2ccccc2)c2cc(Cl)ccc21` [CLOBAZAM]: the AC50 is more than 10 µM in experiment [1]; more than 10 µM on Thromboxane A2 receptor; more than 10 µM in experiment [2]; more than 10 µM on Vasopressin V1a receptor; more than 10 µM in experiment [3]; more than 30 µM in experiment [4]. In experiment [5], this compound showed an AC50 of more than 10 µM.
For the compound `COc1ccccc1OCC(O)COC(N)=O` (stereo unspecified) [METHOCARBAMOL], the AC50 in experiment [1] is more than 10 µM; on Thromboxane A2 receptor, more than 10 µM; in experiment [2], more than 10 µM; in experiment [3], more than 30 µM; in experiment [5], more than 10 µM.
In the case of `CN1C(=O)CC(c2ccccc2)C1=O` (stereo unspecified) [PHENSUXIMIDE], the AC50 in experiment [1] is more than 10 µM; on Thromboxane A2 receptor, more than 10 µM; at Vasopressin V1a receptor it was more than 10 µM; in experiment [3], more than 30 µM; in experiment [4], more than 30 µM; in experiment [5] it was more than 10 µM.
Regarding `CCC1(C2=CCCCCC2)C(=O)NC(=O)NC1=O` [HEPTABARBITAL], the AC50 in experiment [1] is more than 10 µM; at Thromboxane A2 receptor, more than 10 µM; at Vasopressin V1a receptor, more than 10 µM; in experiment [3], more than 30 µM; in experiment [4], more than 30 µM; in experiment [5], more than 10 µM.
As for `CCN1CCC[C@H]1CNC(=O)c1cc(S(N)(=O)=O)ccc1OC` [LEVOSULPIRIDE], the AC50 in experiment [1] is more than 10 µM; at Thromboxane A2 receptor, more than 30 µM; in experiment [6] it was more than 30 µM; on Vasopressin V1a receptor it was more than 30 µM; in experiment [3] it was more than 30 µM; in experiment [5] it was more than 10 µM.
Regarding `CCN(CC)CCOC(=O)c1ccc(N)cc1` [PROCAINE], the AC50 is more than 10 µM in experiment [1], more than 30 µM in experiment [6], 22 µM in experiment [3] and 16 µM in experiment [5].
For `CN[C@@H]1[C@H](O)[C@H](NC)[C@H]2O[C@@]3(O)C(=O)C[C@@H](C)O[C@H]3O[C@@H]2[C@H]1O` [SPECTINOMYCIN], the AC50 is more than 10 µM in experiment [1]; more than 10 µM on Thromboxane A2 receptor; more than 30 µM in experiment [2]; more than 30 µM in experiment [3]; more than 10 µM in experiment [5].
For `[H]/N=C(/N)c1ccc(NCc2nc3cc(C(=O)N(CCC(=O)O)c4ccccn4)ccc3n2C)cc1` [DABIGATRAN], the AC50 (in experiment [1]; in experiment [6]; at Vasopressin V1a receptor; in experiment [3]; in experiment [4]; in experiment [5]) was more than 30 µM each time.
In the case of `CC(=O)NS(=O)(=O)c1ccc(N)cc1` [SULFACETAMIDE], the AC50 in experiment [1] was more than 10 µM; on Thromboxane A2 receptor, more than 10 µM; in experiment [2], more than 10 µM; at Vasopressin V1a receptor, more than 10 µM; in experiment [3], more than 30 µM; in experiment [4], more than 30 µM. In experiment [5], the AC50 is more than 10 µM.
`CN1CC[C@]23CCCC[C@H]2[C@H]1Cc1ccc(O)cc13` [LEVORPHANOL]: the AC50 is more than 10 µM in experiment [1]; more than 10 µM at Thromboxane A2 receptor; more than 10 µM in experiment [2]; more than 10 µM on Vasopressin V1a receptor; more than 30 µM in experiment [3]; more than 30 µM in experiment [4]. Moreover, the AC50 in experiment [5] is more than 30 µM.
For `CC(Cc1ccccc1)NCCC(c1ccccc1)c1ccccc1` (stereo unspecified) [PRENYLAMINE], the AC50 was more than 10 µM in experiment [1]; more than 30 µM on Thromboxane A2 receptor; more than 30 µM in experiment [6]; more than 30 µM at Vasopressin V1a receptor; more than 30 µM in experiment [3]; more than 10 µM in experiment [4]. Further, in experiment [5], the AC50 is more than 10 µM.
On to `CC(C)c1c(C(=O)Nc2ccccc2)c(-c2ccccc2)c(-c2ccc(F)cc2)n1CC[C@@H](O)C[C@@H](O)CC(=O)O` [ATORVASTATIN], for which the AC50 is more than 10 µM in experiment [1]; more than 30 µM on Thromboxane A2 receptor; more than 10 µM in experiment [2]; more than 30 µM in experiment [6]; more than 30 µM on Vasopressin V1a receptor; more than 30 µM in experiment [3]. In experiment [5], this compound registered an AC50 of more than 10 µM.
Take `CN1CCC2=C(C1)C(c1ccccc1)c1ccccc12` (stereo unspecified) [PHENINDAMINE]: the AC50 was more than 10 µM in experiment [1]; more than 10 µM at Thromboxane A2 receptor; more than 10 µM in experiment [2]; more than 10 µM on Vasopressin V1a receptor; 12 µM in experiment [3]; more than 30 µM in experiment [4]. The same compound gave an AC50 in experiment [5] of more than 10 µM.
Regarding `CC(C)C(=O)OCC(=O)[C@@]12O[C@H](C3CCCCC3)O[C@@H]1C[C@H]1[C@@H]3CCC4=CC(=O)C=C[C@]4(C)[C@H]3[C@@H](O)C[C@@]12C` [CICLESONIDE], the AC50 in experiment [1] is more than 10 µM; at Thromboxane A2 receptor it was more than 10 µM; in experiment [2] it was more than 10 µM; on Vasopressin V1a receptor it was more than 10 µM; in experiment [3], more than 30 µM; in experiment [4] it was more than 30 µM. The compound also registered an AC50 in experiment [5] of more than 10 µM.
Regarding `C#CC1(OC(N)=O)CCCCC1` [ETHINAMATE], the AC50 in experiment [1] was more than 10 µM; at Thromboxane A2 receptor it was more than 10 µM; in experiment [2], more than 10 µM; on Vasopressin V1a receptor, more than 10 µM; in experiment [3] it was more than 30 µM; in experiment [4], more than 30 µM. The AC50 in experiment [5] is more than 10 µM.
As to `Cc1c(C(=O)Nc2ccc(N3C[C@@H](C)O[C@@H](C)C3)nc2)cccc1-c1ccc(OC(F)(F)F)cc1` [SONIDEGIB], the AC50 in experiment [1] was more than 10 µM; on Thromboxane A2 receptor, more than 30 µM; in experiment [6], more than 30 µM; on Vasopressin V1a receptor, more than 10 µM; in experiment [3], more than 10 µM.
Consider `NC(=O)C[S+]([O-])C(c1ccccc1)c1ccccc1` (stereo unspecified) [MODAFINIL], for which the AC50 is more than 10 µM in experiment [1]; more than 30 µM at Thromboxane A2 receptor; more than 10 µM in experiment [2]; more than 30 µM in experiment [6]; more than 10 µM at Vasopressin V1a receptor; more than 10 µM in experiment [3]. Moreover, the AC50 in experiment [5] was more than 10 µM.
Regarding `CCNC(C)Cc1cccc(C(F)(F)F)c1` (stereo unspecified) [FENFLURAMINE], the AC50 was more than 10 µM in experiment [1]; more than 30 µM on Thromboxane A2 receptor; more than 30 µM in experiment [6]; more than 10 µM at Vasopressin V1a receptor; more than 30 µM in experiment [3]; more than 10 µM in experiment [5].
In the case of `C#CCN(C)[C@H](C)Cc1ccccc1` [SELEGILINE], the AC50 in experiment [1] was more than 10 µM; on Thromboxane A2 receptor it was more than 10 µM; in experiment [3] it was more than 30 µM.
Consider `CN1CCc2cccc3c2[C@H]1Cc1ccc(O)c(O)c1-3` [APOMORPHINE], for which the AC50 was more than 10 µM in experiment [1]; more than 30 µM on Thromboxane A2 receptor; 23.4 µM in experiment [6]; more than 30 µM on Vasopressin V1a receptor; more than 30 µM in experiment [4]; more than 10 µM in experiment [5].
